# According to patent US20040052836A1, “Pharmaceutical compositions containing at least one stable liposphere having an improved shelf life” (priority 2002, published 2004):
# Where a name gives a salt, the structure may show the parent alone.
# What was measured:
# [1] = tested on: rats; assay: Rat thermal paw flick anesthesia study; type: in vivo; conditions: intraplantar injection 100 μL
# Protocol: Liposphere containing bupivacaine (3%), tristearin (6%), and DMPC (0.75%) was tested for its local anesthetic activity in rats. Its activity was compared with that of bupivacaine HCL (3%) solution. The liposphere formulation was prepared as described in Example 1. Adult rats were given an intraplantar injection of 100 μL of either liposphere formulation or bupivacaine HCl solution. Animals were then individually placed into a Hargreaves “hotbox,” in which a beam of light, as a heat source, was focused on the plantar surface of the injected paw at various intervals after treatment. The latency for the rat to withdraw its paw was recorded, up to a maximum of 20 seconds. The earliest time point examined in these studies was 30 min. The latest time point was 120 min for animals treated with bupivacaine HCl solution (by which time latencies had returned to predrug baseline levels), and 1440 min for animals treated with liposphere formulation.
# [2] = tested on: guinea pigs; assay: Guinea pig wheal anesthesia study (pin-prick); type: in vivo; conditions: subcutaneous 300 μL; 3% liposphere (p<0.043) or 0.5% bupivacaine HCl solution (p<0.008); 1-tailed test; FIG. 3
# Protocol: Liposphere formulation containing bupivacaine (3%), tristearin (6%), and DMPC (0.75%) and the liposphere vehicle containing tristearin (6%) and DMPC (0.75%) were evaluated for their anesthesia activities in guinea pigs. The liposphere formulation and vehicle were prepared as described in Example 1. In addition, a solution of bupivacaine HCl (0.5%) and its vehicle (normal saline solution) were evaluated for comparison. In this example, adult guinea pigs were randomly assigned to one of two groups, with each group receiving two subcutaneous injections: one of vehicle and one of the test articles. Half of the animals in each group were given the vehicle on the left side and the test article on the right side. The other half were given the test article on the left side and the vehicle on the right. Injection volume was 300 μL. There were two injections given to each animal. Both groups consisted of eight animals, four of each group received an injection of the vehicle on the left side of the spine, and the remaining four animals received an injection of the vehicle on the right side. […] The “anesthetic action” (the ability of local anesthetics to block the skin reflex in guinea pigs) was determined using the “pin-prick” method. […] The ability of the test compound to block the twitch responses of the guinea pig to six probings with a carefully calibrated needle algesimeter was evaluated. […]
compound,measurement,setting,value
"CCCCN1CCCCC1C(=O)Nc1c(C)cccc1C (stereo not drawn) [bupivacaine HCl solution, bupivacaine HCl]",duration of anesthesia post injection,"[1]; 3% bupivacaine liposphere or 3% bupivacaine HCl solution, paw withdrawal latency, FIG. 2",up to 60 min
same,time by which latencies had returned to predrug baseline levels,[1]; bupivacaine HCl 3% solution,≤ 120 min
same,duration of statistically significant anesthesia compared to vehicle,[2],up to 0.75 hours
